What was measured:
[1] = test system: HIV-1, RT mutations: 1 NAM; test: PhenoSense resistance test vector assay, clinical isolates with 1 NAM; assay type: cell-based; settings: share of samples designated hypersusceptible
Method: (§1) In preferred embodiments, the phenotypic analysis of NNRTI hypersusceptibility is performed using PHENOSENSE™ (ViroLogic Inc., South San Francisco, Calif.). See Petropoulos et al., 2000, Antimicrob. Agents Chemother. 44:920-928; U.S. Pat. Nos. 5,837,464 and 6,242,187. PHENOSENSE™ is a phenotypic assay that achieves the benefits of phenotypic testing and overcomes the drawbacks of previous assays. Because the assay has been automated, PHENOSENSE™ provides high throughput methods under controlled conditions for determining NNRTI resistance, susceptibility, or hypersusceptibility of a large number of individual viral isolates.
(§2) The assay can be performed by first co-transfecting host cells with RTV DNA and a plasmid that expresses the envelope proteins of another retrovirus, for example, amphotropic murine leukemia virus (MLV). Following transfection, viral particles can be harvested from the cell culture and used to infect fresh target cells in the presence of varying amounts of anti-viral drug(s). The completion of a single round of viral replication in the fresh target cells can be detected by the means for detecting replication contained in the vector. In a preferred embodiment, the completion of a single round of viral replication results in the production of luciferase. By monitoring the amount of, e.g., luciferase activity in the presence of the varying amounts of antiviral drug(s), a resistance curve can be constructed by plotting luciferase activity versus drug concentration. The susceptibility of an HIV, or population of HIV, can be determined by measuring the concentration of antiviral drug at which the luciferase activity detected is half-maximal. This number, the IC50, provides a standard and convenient measure of drug resistance.
(§3) Patient-derived segment(s) corresponding to the HIV protease and reverse transcriptase coding regions were amplified by the reverse transcription-polymerase chain reaction method (RT-PCR) using viral RNA isolated from viral particles present in the plasma or serum of HIV-infected individuals as follows. […]

[2] = test system: HIV-1, RT mutations: 3 NAMs; test: PhenoSense resistance test vector assay, clinical isolates with 3 NAMs; assay type: cell-based; settings: share of samples designated hypersusceptible
Method: as §1, §2, §3

| SMILES | % IC50 0.4 fold < WT [1] [%] | % IC50 0.4 fold < WT [2] [%] |
| --- | --- | --- |
| CC(C)Nc1cccnc1N1CCN(C(=O)c2cc3cc(NS(C)(=O)=O)ccc3[nH]2)CC1 [DLV, delavirdine] | 13.2 | 12.8 |
| O=C1Nc2ccc(Cl)cc2[C@@](C#CC2CC2)(C(F)(F)F)O1 [EFV, efavirenz] | 17.8 | 28.2 |
| Cc1ccnc2c1NC(=O)c1cccnc1N2C1CC1 [NVP, nevirapine] | 18.0 | 17.9 |
